Measurements from patent publication US20250171404A1, “PCNA INHIBITORS AND USES THEREOF” (CITY OF HOPE, priority 2022, published 2025).
Converted amounts (≈) assume the structure as drawn. Read-outs that look alike come from different tables or passages of the source.

Experiments:
[1] = oral, 40 mg/kg, mice (Gu et al., 2018); cited from earlier work
SK-N-DZ = assay: Cell growth IC50, screening of AOH1160 analogs; format: cell-based; conditions: Homo sapiens
Procedure: (§1) FIG. 29. IC50 data for select compounds. The indicated cell lines were seeded at 10^4 cells per well in a 96 well plate. After allowing to attach to the plate overnight, cells were treated with various concentrations of the indicated compounds in triplicates for 72 hrs. The cell growth was measured by an SRB assay. The cell abundances under each treatment condition relative to the baseline were averaged and graphed ±S.D. The baseline is defined as the median value of the cell abundances under the treatment by the two lowest compound concentrations. The IC50 was calculated by the Prism program.

SK-N-AS = assay: Cell growth IC50, screening of AOH1160 analogs; format: cell-based; conditions: Homo sapiens, read-out: IC50 values
Procedure: as §1

SK-N-BE(2)c = assay: Cell growth IC50, screening of AOH1160 analogs; format: cell-based; conditions: Homo sapiens
Procedure: as §1

PCNA = biological target: T1, PCNA (Homo sapiens, UniProt P12004); assay: Thermal denaturation (thermal shift) assay; format: binding; conditions: 9 μM PCNA; 10 or 30 μM compound; dose dependent
T1 construct: made in house; host or cells: E. coli Rosetta 2 (DE3)
Procedure: FIGS. 1A-1E. AOH1160 analog interactions with PCNA. FIG. 1A: Thermal shift assay: Normalized inverse derivative thermal denaturation plots of 9 μM apo-PCNA with DMSO control is depicted with a black dashed line and PCNA in the presence of 10 μM AOH1160LE is shown in light grey and 30 μM AOH1160LE in dark grey. ΔTm values are provided. FIG. 1B: As described in FIG. 1A, in the presence of 10 μM AOH1996 depicted in light grey and 30 μM AOH1996 depicted in dark grey. FIG. 1C: Four monomers (chains A-D) of PCNA are present in the asymmetric unit of the crystal. Chains A, B, and C form the homotrimer biological unit, while chain Dis orientated perpendicular to the plane of the ring, below the interface of chains B and C and it belongs to an adjacent ring. Inset: Three molecules of AOH1160LE bind in and adjacent to the PIP box cavity of each of the PCNA ring subunits. The omit map, gray mesh, is contoured to 1.56. Two PCNA monomer subunits from adjacent rings stack against each other, placing the PIP box and IDCLs of each subunit in opposing directions. FIG. 1D: The three AOH1160LE molecules are shown as stick figure representations. Two of the compounds, left and central, bind into the PIP box cavity at known PCNA-partner/compound interaction sites. […] The electrostatic surface maps are depicted with Poisson-Boltzmann electrostatic surface potentials shown in dark grey and light grey, corresponding to −10 to +10 kT/e respectively.
Targeting the PIP box and APIM binding domain of PCNA. AOH1160, a small molecule PCNA ligand, targets the cancer-distinct L126-Y133 region of PCNA (Malkas et al., 2006) and is selectively toxic to cancer cells (Gu et al., 2018). […]
Thermal denaturation assay for PCNA-AOH1996 interaction. […] Fluorescence intensity was measured within the excitation/emission ranges 470-505/540-700 nm.

[2] = Solubility in aqueous buffer with 10% DMSO; format: physicochemical; conditions: pH 7.4, aqueous with cosolvent or surfactant or cyclodextrin, read-out: soluble at concentration
Procedure: AOH1160LE was soluble at a 4 mM concentration in aqueous buffer with 10% DMSO, which enabled co-crystallization studies on this analog. A PCNA:AOH1160LE co-crystal diffracted to 2.85 Å resolution at the synchrotron source, and phasing was provided by molecular replacement. Four PCNA subunits were present in the asymmetric unit, with three, chains A, B, C belonging to the homotrimeric ring structure, and the fourth, chain D (FIG. 1C) forms part of an adjacent ring in the unit cell that consists solely of D chains. Packing within the unit cell also places each monomer subunit of the PCNA ring against a subunit from another ring; these two stacked subunits interact via their PIP box binding pockets and […] IDCLs that are orientated in directly opposing directions (FIG. 1D). Clearly observed within the electron density maps are three molecules of AOH1160LE, which bind in and adjacent to the PIP box cavity of each of the PCNA ring subunits, and these compounds have further interactions with the PIP box pocket of the stacked PCNA subunit (FIG. 1D).
Expression, purification and crystallization of PCNA. Human PCNA in a pET22b-hPCNA vector was transformed into E. coli Rosetta 2 (DE3) cells. PCNA expression was induced by 0.4 mM IPTG, OD600=0.6, and cells were grown for 5 hrs at 37° C. […]

[3] = Cell growth IC50, screening of AOH1160 analogs (cell line not given); format: cell-based
Procedure: as §1

OVCAR8 = assay: Cell growth IC50, screening of AOH1160 analogs; format: cell-based; conditions: Homo sapiens, OVCAR-8; OVCAR8; read-out: IC50 values
Procedure: as §1

MDA-MB-231 = assay: Cell growth IC50, screening of AOH1160 analogs; format: cell-based; conditions: Homo sapiens
Procedure: as §1

MDA-MB-468 = assay: Cell growth IC50, screening of AOH1160 analogs; format: cell-based; conditions: Homo sapiens, MDA-MB-468; read-out: IC50 values
Procedure: as §1

SK-MEL-5 = assay: Cell growth IC50, screening of AOH1160 analogs; format: cell-based; conditions: Homo sapiens
Procedure: as §1

Hela = assay: Cell growth IC50, screening of AOH1160 analogs; format: cell-based; conditions: Homo sapiens, HeLa; read-out: IC50 values
Procedure: as §1

SK-MEL-28 = assay: Cell growth IC50, screening of AOH1160 analogs; format: cell-based; conditions: Homo sapiens
Procedure: as §1

SK-N-FI = assay: Cell growth IC50, screening of AOH1160 analogs; format: cell-based; conditions: Homo sapiens
Procedure: as §1

SH-SY5Y = assay: Cell growth IC50, screening of AOH1160 analogs; format: cell-based; conditions: Homo sapiens
Procedure: as §1

T1 sequence (P12004 whole entry): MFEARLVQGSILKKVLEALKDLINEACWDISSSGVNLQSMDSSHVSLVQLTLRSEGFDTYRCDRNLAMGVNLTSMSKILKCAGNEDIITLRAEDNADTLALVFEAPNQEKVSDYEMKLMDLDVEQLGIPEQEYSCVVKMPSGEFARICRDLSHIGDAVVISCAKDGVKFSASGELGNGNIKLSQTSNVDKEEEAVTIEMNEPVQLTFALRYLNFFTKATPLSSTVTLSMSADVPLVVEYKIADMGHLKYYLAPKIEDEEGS

O=C(CNC(=O)c1cccc2ccccc12)Nc1ccccc1Oc1ccccc1 [AOH1160]
half-life [1]: 3.4 h | IC50 (SK-N-DZ): 237 nM | IC50 (SK-N-AS): 107 nM | IC50 (SK-N-BE(2)c): 325 nM

O=C(O)CC[C@H](NC(=O)c1cccc2ccccc12)C(=O)Nc1ccccc1Oc1ccccc1 [AOH1160LE]
shift of protein melting curves (ΔTm) (PCNA): ≤ 0.5 °C | solubility [2]: 4 mM (≈ 1870 µg/mL) | IC50 ([3]; read-out: IC50 values): > 10000 nM

O=C(CNC(=O)c1cccc2ccccc12)Nc1ccccc1Sc1ccccc1F [AOH1996S-2F, N-(2-((2-((2-fluorophenyl)thio)phenyl)amino)-2-oxoethyl)-1-naphthamide]
IC50 (OVCAR8): 410 nM | IC50 (MDA-MB-231): 220 nM

O=C(CNC(=O)c1cccc2ccccc12)Nc1ccccc1Sc1ccccc1 [AOH1160S, N-(2-oxo-2-((2-(phenylthio)phenyl)amino)ethyl)-1-naphthamide]
IC50 (MDA-MB-468): 316 nM | IC50 (SK-MEL-5): 610 nM | IC50 (Hela): 290 nM | IC50 (SK-MEL-28): 340 nM

C[C@H](NC(=O)c1cccc2ccccc12)C(=O)Nc1ccccc1Oc1ccccc1 [AOH1160LA, (S)—N-(1-oxo-1-((2-phenoxyphenyl)amino)propan-2-yl)-1-naphthamide]
IC50 (MDA-MB-468): 4900 nM | IC50 (SK-N-FI): 3000 nM | IC50 (SH-SY5Y): 4000 nM | IC50 ([3]; FIG. 25, read-out: IC50): ~3000 nM
